Here are results for 15 compounds from ChEMBL document CHEMBL3785025, “Focus on PAINS: false friends in the quest for selective anti-protozoal lead structures from Nature?” (Medchemcomm, 2016).

Values after ≈ are worked out from the molar mass of the structure shown.

The test system of data set [1] is Plasmodium falciparum. In words: Antimalarial activity against chloroquine-sensitive Plasmodium falciparum 3D7 after 48 hrs by ethidium bromide staining based fluorometric method. To be noted: 3D7, 48 h. Type of data set: functional, organism-based.
The nature of data set [2]: Cytotoxicity against human U937 cells after 72 hrs by MTT assay. It is filed as functional. To be noted: U-937, 72 h, read-out: LD50 (the source's name). (Tetrazolium assays rely on reduction of a dye to a coloured formazan, in cell work by metabolically active cells.)
The test system of data set [3] is Trypanosoma brucei rhodesiense. In words: Antitrypanosomal activity against Trypanosoma brucei rhodesiense STIB 900 after 72 hrs by alamar blue staining based fluorescence analysis. The conditions noted are these: STIB 900, 72 h. It is filed as functional, organism-based. Background: Alamar Blue is a resazurin reagent that responds to reducing activity.
For a further data set, the system named is L6. The data set can be described thus: Cytotoxicity against rat L6 cells after 72 hrs by alamar blue staining based fluorescence analysis. The conditions noted are these: L6, 72 h. Type of data set: functional, cell-based.
The subject of data set [4] is Leishmania donovani. The data set can be described thus: Antileishmanial activity against Leishmania donovani MHOM/ET/67/L82 after 72 hrs by Alamar blue dye based fluorescence analysis. Type of data set: functional, organism-based. The conditions noted are these: MHOM/ET/67/L82, 72 h.
For data set [5], the system named is Trypanosoma cruzi. In words: Antitrypanosomal activity against trypomastigote forms of Trypanosoma cruzi Tulahuen C2C4 infected in rat L6 cells after 96 hrs by photometric method. Type of data set: functional, organism-based. To be noted: Tulahuen C2C4, L6, 96 h.
For data set [6], the system named is Plasmodium falciparum. The data set can be described thus: Antiplasmodial activity against chloroquine-resistant Plasmodium falciparum FcB1/Colombia after 24 hrs by [3H]hypoxanthine incorporation assay. It is filed as functional, organism-based.
Data set [7] relates to Trypanosoma brucei brucei. The data set can be described thus: Antitrypanosomal activity against Trypanosoma brucei brucei. Type of data set: functional, organism-based.
In data set [8] the test system is Leishmania donovani. The data set can be described thus: Antileishmanial activity against Leishmania donovani MHOM/ET/67/HU3 after 5 days by Giemsa staining based microscopic analysis. The conditions noted are these: MHOM/ET/67/HU3, 120 h. Type of data set: functional, organism-based.
The subject of data set [9] is Leishmania major. In words: Antileishmanial activity against promastigote Leishmania major MHOM/IL/67/LRC-L137 assessed as growth inhibition after 2 hrs by [3H]-thymidine incorporation assay. It is filed as functional, organism-based. In general terms: Incorporation of labelled thymidine or its analogues reports DNA synthesis.
Data set [10] deals with Leishmania donovani. In words: Antileishmanial activity against […] Leishmania donovani MHOM/KE/85/NLB439 in human peripheral blood monocyte derived macrophages assessed as growth inhibition after 24 hrs by [3H]-thymidine incorporation assay. It is filed as functional, organism-based.
For the next data set, the target named is T1, Arginase-1 (Rattus norvegicus, UniProt P07824).
T1 sequence (P07824 whole entry): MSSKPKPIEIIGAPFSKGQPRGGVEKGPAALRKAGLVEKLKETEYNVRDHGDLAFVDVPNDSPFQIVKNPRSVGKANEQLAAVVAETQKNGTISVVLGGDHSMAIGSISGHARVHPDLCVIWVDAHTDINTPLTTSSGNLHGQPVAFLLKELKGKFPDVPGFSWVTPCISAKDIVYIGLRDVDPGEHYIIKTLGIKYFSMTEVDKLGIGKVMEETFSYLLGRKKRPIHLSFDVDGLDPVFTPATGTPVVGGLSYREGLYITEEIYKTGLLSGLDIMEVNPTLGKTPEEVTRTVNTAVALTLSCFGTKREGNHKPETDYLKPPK
In words: Inhibition of recombinant rat liver arginase expressed without histidine tail assessed as urea formation using L-arginine as substrate after 15 mins by Berthelot assay.

In data set [11] the test system is Leishmania major. The data set can be described thus: Antileishmanial activity against Leishmania major promastigotes. Type of data set: functional. The conditions noted are these: read-out: LD50 (the source's name).
Data set [12] deals with Plasmodium falciparum. The data set can be described thus: Antimalarial activity against chloroquine-sensitive Plasmodium falciparum 3D7 after 24 hrs by [3H]hypoxanthine labeling method. Type of data set: functional, organism-based.
Data set [13] can be described thus: Cytotoxicity against mouse J774.1 cells. Type of data set: cell-based.
The nature of data set [14]: Cytotoxicity against HEK293T cells. It is filed as cell-based. The conditions noted are these: Homo sapiens, HEK-293T.
The next data set concerns Trypanosoma brucei. The data set can be described thus: Antitrypanosomal activity against Trypanosoma brucei. It is filed as functional, organism-based.
In the next data set the test system is Plasma. The data set can be described thus: Plasma concentration in human at […], administered orally by HPLC method in presence of 20 mg piperine. It is filed as ADME, cell-free. The conditions noted are these: po.
Data set [15] deals with Leishmania amazonensis. The data set can be described thus: Antileishmanial activity against amastigote Leishmania amazonensis. It is filed as functional, organism-based.
Data set [16] concerns Leishmania amazonensis. In words: Antileishmanial activity against amastigote Leishmania amazonensis relative to control. Type of data set: functional.
For data set [17], the system named is Plasmodium falciparum. In words: Antimalarial activity against chloroquine and pyrimethamine-resistant Plasmodium falciparum K1 infected in human red blood cells after 48 hrs by [3H]hypoxanthine incorporation assay. It is filed as functional, organism-based.
For data set [18], the system named is Leishmania donovani. In words: Antileishmanial activity against Leishmania donovani MHOM/ET/67/L82 after 72 hrs by resazurin dye based fluorescence analysis. Type of data set: functional, organism-based. To be noted: MHOM/ET/67/L82, 72 h.
For data set [19], the system named is Trypanosoma cruzi. In words: Antitrypanosomal activity against trypomastigote forms of Trypanosoma cruzi Tulahuen C2C4 infected in rat L6 cells assessed as inhibition of growth after 96 hrs by inverted microscopy. Type of data set: functional, organism-based. To be noted: Tulahuen C2C4, L6, 96 h.
The next data set relates to Leishmania tropica. In words: Antileishmanial activity against Leishmania tropica MHOM/IR/2002/Mash2 assessed as cell viability after 72 hrs by MTT assay. It is filed as functional, organism-based. To be noted: MHOM/IR/2002/Mash2, 72 h.
The next data set has as its system Leishmania infantum. In words: Antileishmanial activity against Leishmania infantum MCAN/IR/07/Moheb-gh assessed as cell viability after 72 hrs by MTT assay. It is filed as functional, organism-based.
Data set [20] in a line: Cmax in Wistar rat at 50 mg/kg after 2 hrs by UPLC method. It is filed as ADME, organism-based. The arrangement: dose 50 mg/kg. The conditions noted are these: in vivo.
Data set [21] in a line: Cmax in Wistar rat at 50 mg/kg administered as lipid nanoparticle suspension after 2 hrs by UPLC method. It is filed as ADME, organism-based. Further details: dose 50 mg/kg. The conditions noted are these: in vivo.

What is called IC50 is the concentration that gives 50% inhibition. Turning to `CC(C)=CCc1c(O)c(O)c(O)c2c(=O)c3c(CC=C(C)C)c(O)c(O)cc3oc12`, half-maximal inhibition in the data set with Plasmodium falciparum [1] (IC50) was put at 12.4 µM. Also, the CC50 in [2] came out at 263 µM.

As for `C[C@@H]1O[C@@H](Oc2c(-c3ccc(O)c(O)c3)oc3cc(O)cc(O)c3c2=O)[C@H](O)[C@H](O)[C@H]1O` [QUERCITRIN], the half-inhibitory concentration (IC50) is 27.9 µg/mL in data set [3], more than 90 µg/mL with L6, 17.7 µg/mL (≈ 39.5 µM) in the data set on Leishmania donovani [4] and more than 30 µg/mL in the data set on Trypanosoma cruzi [5].

With `O=c1cc(-c2ccc(O)cc2)oc2cc(O)cc(O)c12` [APIGENIN], the IC50 in data set [3] is 5.1 µg/mL; in the data set on L6, 18.1 µg/mL; in the data set on Leishmania donovani [4], 1.9 µg/mL (≈ 7.03 µM); in the data set with Trypanosoma cruzi [5], 21.8 µg/mL (≈ 80.7 µM).

For `O=CO[C@@H](CCc1ccc(O)c(O)c1)C[C@H](CCc1ccc(O)c(O)c1)O[C@@H]1O[C@H](CO)[C@@H](O)[C@H](O)[C@H]1O`, the figures for the half-maximal inhibitory concentration (IC50) (in the data set on Plasmodium falciparum [6]; in data set [7]; with Leishmania donovani [8]) were more than 20 µM, 25 µM and 30 µM, respectively.

In the case of `COc1ccc(CC[C@H](O)C[C@H](CCc2ccc(O)c(O)c2)O[C@@H]2O[C@H](CO)[C@@H](O)[C@H](O)[C@H]2O)cc1`, the half-inhibitory concentration (IC50) with Plasmodium falciparum [6] is more than 20 µM; in data set [7] it was more than 100 µM; with Leishmania donovani [8], 30 µM.

As for `OC[C@H]1O[C@@H](O[C@@H](CCc2ccc(O)c(O)c2)C[C@@H](O)CCc2ccc(O)c(O)c2)[C@H](O)[C@@H](O)[C@@H]1O`, the 50% inhibitory concentration (IC50) with Plasmodium falciparum [6] was more than 20 µM; in data set [7] it was 25 µM; in the data set on Leishmania donovani [8], 30 µM.

With `C=CC(C)(C)c1cc(/C=C/C(=O)c2ccc(O)cc2)c(OC)cc1O` [LICOAGROCHACONE A], the 50% inhibitory concentration (IC50) in the data set on Leishmania major [9] was 7.2 µM; in the data set on Leishmania donovani [10] it was 0.9 µM.

For `O=c1cc(-c2ccc(O)c(O)c2)oc2cc(O)cc(O)c12` [LUTEOLIN], the IC50 was found to be 9 µM at Arginase-1; 3.7 µg/mL in data set [3]; 9.4 µg/mL in the data set with L6; 0.8 µg/mL (≈ 2.79 µM) in the data set on Leishmania donovani [4]; 21.4 µg/mL (≈ 74.8 µM) in the data set with Trypanosoma cruzi [5].

Take `COc1cc(/C=C/C(=O)CC(=O)/C=C/c2ccc(O)c(OC)c2)ccc1O` [CURCUMIN]: the LC50 came to 37.6 µM with Leishmania major [11] and 46.5 µM in [7] (read-out: LD50 (the source's name)). The half-inhibitory concentration (IC50) came out at 25 µM in the data set with Plasmodium falciparum [12], 31 µM in data set [13], 15.2 µM in data set [14] and 3.6 µM in the data set with Trypanosoma brucei. Further, the Cp with Plasma is 180 ng/mL.

For the compound `O=c1c(O[C@@H]2O[C@H](CO)[C@@H](O)[C@H](O)[C@H]2O)c(-c2ccc(O)c(O)c2)oc2cc(O)cc(O)c12` [ISOQUERCETIN], half-maximal inhibition in the data set on Leishmania amazonensis [15] (IC50) was put at 0.78 µg/mL (≈ 1.68 µM). The same compound had an Activity in the data set on Leishmania amazonensis [16] of 40%.

Turning to `C/C=C(\C)CO[C@@H]1CC([C@@H](O)[C@]2(C)C=C3OC(=O)C4=C3[C@H]2[C@H]2OC(=O)[C@H](C)[C@@H]2[C@H](OC/C(C)=C/C)C4)=C2C(=O)C=C(C)[C@@H]2[C@H]2OC(=O)[C@H](C)[C@@H]21`, the IC50 with Plasmodium falciparum [17] turned out to be 2 µM; in the data set with Leishmania donovani [18], 10.2 µM; in data set [3], 6.2 µM; with Trypanosoma cruzi [19] it was 30.3 µM; with L6, 16.2 µM.

Usually Cmax stands for the maximum level reached in the sampled fluid or tissue. For the compound `CC1=CC(=O)C(C(C)C)=CC1=O` [THYMOQUINONE], the IC50 amounted to 1.16 µg/mL (≈ 7.06 µM) in the data set with Leishmania tropica and 1.47 µg/mL (≈ 8.95 µM) in the data set on Leishmania infantum. Further, the Cmax in data set [20] was 400 ng/mL; in data set [21] it was 900 ng/mL.

For `COc1ccc(CC[C@@H](C[C@H](CCc2ccc(O)c(O)c2)O[C@@H]2O[C@H](CO)[C@@H](O)[C@H](O)[C@H]2O)OC=O)cc1`, the values for the half-inhibitory concentration (IC50) (in the data set on Plasmodium falciparum [6]; in data set [7]; with Leishmania donovani [8]) were more than 20 µM, 25 µM and 30 µM, respectively.

In the case of `O=c1c(O)c(-c2ccc(O)c(O)c2)oc2cc(O)ccc12` [FISETIN], the half-maximal inhibitory concentration (IC50) was 1.4 µM at Arginase-1; 3.3 µg/mL in data set [3]; 38.5 µg/mL in the data set with L6; 0.6 µg/mL (≈ 2.1 µM) in the data set on Leishmania donovani [4]; more than 30 µg/mL with Trypanosoma cruzi [5].

For `O=c1c(O)c(-c2ccc(O)c(O)c2)oc2cc(O)cc(O)c12` [QUERCETIN], the IC50 in [3] was 8.3 µg/mL; in the data set with Leishmania donovani [4], 1 µg/mL (≈ 3.31 µM); in the data set with Trypanosoma cruzi [5], more than 30 µg/mL.
